From patent publication US8614236B2 (University of Washington, priority 2006, dated 2013)
Entries after “also recorded” stand apart in the source; their conditions may differ.

Assays:
PASMCs = test: Intracellular pH (pHi) in PASMCs (BCECF-AM); type: cell-based, rat; settings: for basal pHi, Baseline: before the compound
Procedure: The method for obtaining single PASMCs has been described previously in Shimoda L. A., et al., Am J Physiol 274: 842-853 (1998), which is hereby incorporated by reference in its entirety. Intrapulmonary arteries (200-600 μm o.d.) were isolated from male Wistar rats (250-350 g) and cleaned of connective tissue. After the lumen was gently rubbed with a cotton swab to remove the endothelial cells, the arteries were allowed to recover for 30 minutes in cold (4° C.) HBSS containing (in mM): 130 NaCl, 5 KCl, 1.2 MgCl2, 1.5 CaCl2, 10 N-[2-hydroxyethyl]piperazine-N′-[2-ethanesulfonic acid] (HEPES) and 10 glucose, with pH adjusted to 7.2 with 5 M NaOH, followed by 20 minutes in reduced-Ca^2+ (20 μM CaCl2) HBSS at room temperature. The tissue was enzymatically digested in reduced-Ca^2+ HBSS containing collagenase (type I; 1750 U/ml), papain (9.5 U/ml), bovine serum albumin (2 mg/ml) and dithiothreitol (1 mM) at 37° C. for 20 minutes. Following digestion, single smooth muscle cells were dispersed by gentle trituration with a wide-bore transfer pipette in Ca^2+-free HBSS and the cell suspension was placed on 25 mm glass cover slips. PASMCs were transiently cultured in Ham's-F-12 media supplemented with 0.5% fetal bovine serum and 1% penicillin/streptomycin for 24-48 hrs. before study.
pHi within PASMCs was monitored using the cell permeant pH sensitive dye 2′,7′-bis(carboxyethyl)-5(6)-carboxyflourescein (BCECF-AM). Cells were incubated with BCECF-AM for 60 min at 37° C. under an atmosphere of 21% O2-5% CO2. Cells were then washed with Kreb's solution for 15 min at 37° C. to remove extracellular dye and allow complete de-esterification of cytosolic dye. Cells were excited with light at 490 and 440 nm and light emitted from the cells was detected at 530 nm. The ratio of 490 to 440 nm emission was calculated and converted into pH values by performing a calibration curve after each experiment. PASMCs were subjected to a high K^+ buffer containing 10 μM nigericin, which allowed the cell to adopt the pH of the high K^+ buffer. Two high K^+/nigericin buffers were used to set pH to 6.5 or 7.5, pHi was estimated from in situ calibration after each experiment. Cells were perfused with a solution containing (in mM): 105 KCl, 1 MgCl2, 1.5 CaCl2, 10 glucose, 20 HEPES-Tris and 0.01 nigericin to allow pHi to equilibrate to external pH as in Quinn D. A., et al., Am J Respir Cell Mol Biol 5: 586-591 (1991), which is hereby incorporated by reference in its entirety. A two point calibration was created from fluorescence measured as pHi was adjusted with KOH from 6.5 to 7.5. Intracellular H^+ ion concentration ([H^+]i) was determined from pHi using the formula: pHi=−log ([H^+]i).

Beagle dogs = test: Dog study: pulmonary and systemic hemodynamics, hypoxic pulmonary vasoconstriction; type: in vivo; settings: for MPAP and PVR during hypoxia (words): iv bolus + continuous infusion (AZ, benzolamide 2 mg/kg + 2 mg/kg/h; ethoxzolamide 1 mg/kg + 1 mg/kg/h)
Procedure: A total of 30 experiments were performed on six female Beagle dogs (body wt 14.3±0.3 kg). The dogs were kept under highly standardized conditions and received a standardized diet five days before the experiments. The preparation and catheterization of the conscious dog were performed according to former experiments as in Höhne C., et al., J Appl Physiol (2004), which is hereby incorporated by reference in its entirety. To permit spontaneous breathing through a low resistance circuit, a face mask was attached, which enclosed the dog's snout in a leak proof fashion. This custom made mask is equipped with a 2.5 cm ID connector to connect it to a ventilator set to CPAP mode (3 4 cmH20) (Servo900C; Siemens-Elema, Erlangen/Germany).
Six dogs were studied in five different protocols in randomized order:
4) Benzolamide intravenously: Bolus (2 mg/kg), followed by a continuous infusion of 2 mg·kg^−1·h^−1, a dosage which inhibits only renal and vascular endothelial extracellular CA, without affecting red cell CA as in Travis D. M., et al. J Pharmacol Exp Ther (1964), which is hereby incorporated by reference in its entirety. 5) Ethoxzolamide (Sigma-Aldrich, Steinheim/Germany) intravenously: Bolus ethoxzolamide (1 mg/kg), followed by a continuous infusion of 1 mg·kg^−1·h^−1.
In control experiments, the dogs breathed room air (21% O2, 79% N2; normoxia) for one hour, followed by breathing a gas mixture containing 10% O2 and 90% N2 for two hours (hypoxia). The time course was the same for the CA inhibitor experiments, but F1O2 was reduced to 0.09 during the hypoxia period to match the arterial and alveolar PO2 of the control dogs, which otherwise would have been higher on 10% O2 as a result of the known ventilatory stimulant effect of all CA inhibitors. See Höhne C., et al., J Appl Physiol 97:515-521 (2004), which is hereby incorporated by reference in its entirety. The hemodynamic measurements (arterial blood pressure, heart rate, central venous pressure, pulmonary artery pressure, pulmonary capillary wedge pressure), minute ventilation, renal function data, time points for blood samples for blood gases, actual bicarbonate, base excess, plasma electrolytes and hormones, measurements of plasma and urinary values were according to former studies. See Höhne C., et al., J Appl Physiol 90:1842-1848 (2001), which is hereby incorporated by reference in its entirety.
Values are given as means±SEM (n=6). For intra-group comparisons a general linear model of analysis of variance (GLM-ANOVA) for repeated measures was applied (NCSS97/PASS 2000, Saugus/MA, USA). Post-hoc testing of means was performed with Student's t-test. Level of significance for error of first order was adjusted according to Holm's procedure. Statistical significance was assumed at p<0.05.

[1] = iv bolus + continuous infusion, hypoxia 2nd h
[2] = iv bolus + continuous infusion, hypoxia 3rd h
[3] = iv bolus + continuous infusion, normoxia 1st h
[4] = po 5 mg/kg 12 and 1 hr before, hypoxia 2nd h
[5] = po 5 mg/kg 12 and 1 hr before, hypoxia 3rd h
[6] = po 5 mg/kg 12 and 1 hr before, normoxia 1st h

CCOc1ccc2nc(S(N)(=O)=O)sc2c1 [EZ, ethoxzolamide]
basal pHi, Treatment (PASMCs; 100 μM): 7.19 ± 0.04 | effect on basal pHi (PASMCs; 100 μM): significant decrease | basal pHi, Baseline (PASMCs): 7.28 ± 0.04 | MPAP and PVR during hypoxia (words) (Beagle dogs): increased; also recorded: did not prevent | CO, cardiac output (Beagle dogs; [1]): 2.9 ± 0.2 L/min | CVP, central venous pressure (Beagle dogs; [1]): 2.5 ± 0.2 cmH2O | HR, heart rate (Beagle dogs; [1]): 104 ± 6 beats/min | MAP, mean arterial pressure (Beagle dogs; [1]): 104 ± 7 mmHg | MPAP, mean pulmonary arterial pressure (Beagle dogs; [1]): 17 ± 1 mmHg | PCWP, pulmonary capillary wedge pressure (Beagle dogs; [1]): 4.0 ± 0.5 cm H2O | SVR, systemic vascular resistance (Beagle dogs; [1]): 2745 ± 154 dyn · s^1 · cm^−5 | CO, cardiac output (Beagle dogs; [2]): 2.9 ± 0.3 L/min | CVP, central venous pressure (Beagle dogs; [2]): 2.5 ± 0.2 cmH2O | HR, heart rate (Beagle dogs; [2]): 106 ± 4 beats/min | MAP, mean arterial pressure (Beagle dogs; [2]): 101 ± 1 mmHg | MPAP, mean pulmonary arterial pressure (Beagle dogs; [2]): 16 ± 1 mmHg | PCWP, pulmonary capillary wedge pressure (Beagle dogs; [2]): 3.5 ± 0.3 cm H2O | SVR, systemic vascular resistance (Beagle dogs; [2]): 3270 ± 380 dyn · s^1 · cm^−5 | CO, cardiac output (Beagle dogs; [3]): 2.8 ± 0.2 L/min | CVP, central venous pressure (Beagle dogs; [3]): 2.3 ± 0.2 cmH2O | HR, heart rate (Beagle dogs; [3]): 77 ± 4 beats/min | MAP, mean arterial pressure (Beagle dogs; [3]): 96 ± 2 mmHg | MPAP, mean pulmonary arterial pressure (Beagle dogs; [3]): 11 ± 1 mmHg | PCWP, pulmonary capillary wedge pressure (Beagle dogs; [3]): 3.8 ± 0.2 cm H2O | PVR, pulmonary vascular resistance (Beagle dogs; [3]): 221 ± 21 dyn · s^−1 · cm^−5 | SVR, systemic vascular resistance (Beagle dogs; [3]): 2784 ± 200 dyn · s^1 · cm^−5

CC(=O)Nc1nnc(S(N)(=O)=O)s1 [AZ, acetazolamide]
effect on basal pHi (PASMCs; 100 μM): small decrease | effect of hypoxia on pHi in treated cells (PASMCs; 100 μM, 4% O2): no effect | pHi after hypoxia in pretreated PASMCs (PASMCs; 100 μM, 4% O2): 7.24±0.03 | basal pHi, Baseline (PASMCs): 7.26±0.02 | MPAP and PVR during hypoxia (words) (Beagle dogs): did not change | MPAP and PVR during hypoxia (words) (Beagle dogs; listed as acetazolamide): still inhibited | CO, cardiac output (Beagle dogs; [1]): 2.6 ± 0.2 L/min | CVP, central venous pressure (Beagle dogs; [1]): 2.6 ± 0.6 cmH2O | HR, heart rate (Beagle dogs; [1]): 92 ± 9 beats/min | MAP, mean arterial pressure (Beagle dogs; [1]): 109 ± 7 mmHg | MPAP, mean pulmonary arterial pressure (Beagle dogs; [1]): 15 ± 1 mmHg | PCWP, pulmonary capillary wedge pressure (Beagle dogs; [1]): 3.5 ± 0.3 cm H2O | SVR, systemic vascular resistance (Beagle dogs; [1]): 3348 ± 260 dyn · s^1 · cm^−5 | CO, cardiac output (Beagle dogs; [2]): 2.4 ± 0.1 L/min | CVP, central venous pressure (Beagle dogs; [2]): 1.8 ± 0.5 cmH2O | HR, heart rate (Beagle dogs; [2]): 98 ± 8 beats/min | MAP, mean arterial pressure (Beagle dogs; [2]): 111 ± 6 mmHg | MPAP, mean pulmonary arterial pressure (Beagle dogs; [2]): 14 ± 1 mmHg | PCWP, pulmonary capillary wedge pressure (Beagle dogs; [2]): 3.3 ± 0.2 cm H2O | SVR, systemic vascular resistance (Beagle dogs; [2]): 3675 ± 241 dyn · s^1 · cm^−5 | CO, cardiac output (Beagle dogs; [3]): 2.4 ± 0.2 L/min | CVP, central venous pressure (Beagle dogs; [3]): 1.8 ± 0.3 cmH2O | HR, heart rate (Beagle dogs; [3]): 70 ± 5 beats/min | MAP, mean arterial pressure (Beagle dogs; [3]): 97 ± 4 mmHg | MPAP, mean pulmonary arterial pressure (Beagle dogs; [3]): 14 ± 0 mmHg | PCWP, pulmonary capillary wedge pressure (Beagle dogs; [3]): 3.5 ± 0.6 cm H2O | SVR, systemic vascular resistance (Beagle dogs; [3]): 3347 ± 260 dyn · s^1 · cm^−5 | PVR during hypoxia (Beagle dogs; po 5 mg/kg 12 and 1 hr before): did not change | MPAP during hypoxia (Beagle dogs; po 5 mg/kg 12 and 1 hr before, after 2 hrs of hypoxia): increased slightly | CO, cardiac output (Beagle dogs; [4]): 2.8 ± 0.2 L/min | CVP, central venous pressure (Beagle dogs; [4]): 1.5 ± 0.2 cmH2O | HR, heart rate (Beagle dogs; [4]): 101 ± 9 beats/min | MAP, mean arterial pressure (Beagle dogs; [4]): 110 ± 5 mmHg | MPAP, mean pulmonary arterial pressure (Beagle dogs; [4]): 17 ± 1 mmHg | PCWP, pulmonary capillary wedge pressure (Beagle dogs; [4]): 3.3 ± 0.3 cm H2O | SVR, systemic vascular resistance (Beagle dogs; [4]): 3238 ± 326 dyn · s^1 · cm^−5 | CO, cardiac output (Beagle dogs; [5]): 2.7 ± 0.3 L/min | CVP, central venous pressure (Beagle dogs; [5]): 1.3 ± 0.2 cmH2O | HR, heart rate (Beagle dogs; [5]): 103 ± 7 beats/min | MAP, mean arterial pressure (Beagle dogs; [5]): 108 ± 7 mmHg | MPAP, mean pulmonary arterial pressure (Beagle dogs; [5]): 17 ± 2 mmHg | PCWP, pulmonary capillary wedge pressure (Beagle dogs; [5]): 3.6 ± 0.4 cm H2O | SVR, systemic vascular resistance (Beagle dogs; [5]): 3270 ± 380 dyn · s^1 · cm^−5 | CO, cardiac output (Beagle dogs; [6]): 2.5 ± 0.2 L/min | CVP, central venous pressure (Beagle dogs; [6]): 2.0 ± 0.3 cmH2O | HR, heart rate (Beagle dogs; [6]): 78 ± 5 beats/min | MAP, mean arterial pressure (Beagle dogs; [6]): 99 ± 1 mmHg | MPAP, mean pulmonary arterial pressure (Beagle dogs; [6]): 12 ± 1 mmHg | PCWP, pulmonary capillary wedge pressure (Beagle dogs; [6]): 3.5 ± 0.3 cm H2O | SVR, systemic vascular resistance (Beagle dogs; [6]): 3301 ± 320 dyn · s^1 · cm^−5

NS(=O)(=O)c1nnc(NS(=O)(=O)c2ccccc2)s1 [BZ, benzolamide]
basal pHi, Treatment (PASMCs; 100 μM): 7.25 ± 0.03 | effect on basal pHi (PASMCs; 100 μM): significant decrease | basal pHi, Baseline (PASMCs): 7.31 ± 0.02 | MPAP and PVR during hypoxia (words) (Beagle dogs; listed as Benzolamide): did not inhibit | MPAP and PVR during hypoxia (words) (Beagle dogs; listed as benzolamide): increased | CO, cardiac output (Beagle dogs; [1]): 2.6 ± 0.2 L/min | CVP, central venous pressure (Beagle dogs; [1]): 1.5 ± 0.2 cmH2O | HR, heart rate (Beagle dogs; [1]): 94 ± 10 beats/min | MAP, mean arterial pressure (Beagle dogs; [1]): 109 ± 6 mmHg | MPAP, mean pulmonary arterial pressure (Beagle dogs; [1]): 18 ± 1 mmHg | PCWP, pulmonary capillary wedge pressure (Beagle dogs; [1]): 3.2 ± 0.4 cm H2O | SVR, systemic vascular resistance (Beagle dogs; [1]): 3272 ± 113 dyn · s^1 · cm^−5 | CO, cardiac output (Beagle dogs; [2]): 2.7 ± 0.2 L/min | CVP, central venous pressure (Beagle dogs; [2]): 1.2 ± 0.2 cmH2O | HR, heart rate (Beagle dogs; [2]): 90 ± 8 beats/min | MAP, mean arterial pressure (Beagle dogs; [2]): 109 ± 9 mmHg | MPAP, mean pulmonary arterial pressure (Beagle dogs; [2]): 19 ± 1 mmHg | PCWP, pulmonary capillary wedge pressure (Beagle dogs; [2]): 3.8 ± 0.3 cm H2O | SVR, systemic vascular resistance (Beagle dogs; [2]): 3227 ± 83 dyn · s^1 · cm^−5 | CO, cardiac output (Beagle dogs; [3]): 2.7 ± 0.2 L/min | CVP, central venous pressure (Beagle dogs; [3]): 1.8 ± 0.3 cmH2O | HR, heart rate (Beagle dogs; [3]): 73 ± 6 beats/min | MAP, mean arterial pressure (Beagle dogs; [3]): 102 ± 5 mmHg | MPAP, mean pulmonary arterial pressure (Beagle dogs; [3]): 12 ± 1 mmHg | PCWP, pulmonary capillary wedge pressure (Beagle dogs; [3]): 3.2 ± 0.2 cm H2O | SVR, systemic vascular resistance (Beagle dogs; [3]): 3101 ± 376 dyn · s^1 · cm^−5
